According to the NIST ThermoML archive (doi:10.1016/j.jct.2016.11.002):
Where “and” joins values, the source holds several entries; their conditions need not be identical. Equal entries are not always repeated. ± gives the expanded uncertainty stated by the source.

Legend:
[1] = 100 kPa, Liquid; for speed of sound: Frequency=3 MHz, Single path-length method; for mass density: Vibrating tube method
[2] = refractive index (Na D-line) (dimensionless); settings: 100 kPa, Liquid, Standard Abbe refractometry
[3] = xn = mol fraction of the nth substance listed; settings: 100 kPa, Liquid, x1 = 1; for speed of sound: Frequency=3 MHz, Single path-length method; for mass density: Vibrating tube method
[4] = refractive index (Na D-line) (dimensionless); xn = mol fraction of the nth substance listed; settings: 100 kPa, Liquid, Standard Abbe refractometry, x1 = 1

SMILES: CCOCCO [2-ethoxyethan-1-ol]
- speed of sound ([1]; 298.15 K): 1302.8 ± 1.3 m/s
- mass density ([1]; 298.15 K): 925.54 ± 1 kg/m3
- speed of sound ([1]; 303.15 K): 1285 ± 1.3 m/s
- mass density ([1]; 303.15 K): 920.99 ± 1 kg/m3
- speed of sound ([1]; 308.15 K): 1267.3 ± 1.3 m/s
- mass density ([1]; 308.15 K): 916.41 ± 1 kg/m3
- speed of sound ([1]; 313.15 K): 1249.6 ± 1.3 m/s
- mass density ([1]; 313.15 K): 911.8 ± 1 kg/m3
- speed of sound ([1]; 318.15 K): 1232 ± 1.3 m/s and 1231.5 ± 1.3 m/s
- mass density ([1]; 318.15 K): 907.15 ± 1 kg/m3
- speed of sound ([1]; 323.15 K): 1214.3 ± 1.3 m/s
- mass density ([1]; 323.15 K): 902.46 ± 1 kg/m3
- refractive index ([2]; 298.15 K): 1.4055 ± 0.0016
- refractive index ([2]; 303.15 K): 1.4042 ± 0.0016
- refractive index ([2]; 308.15 K): 1.4028 ± 0.0016
- refractive index ([2]; 313.15 K): 1.4016 ± 0.0016
- refractive index ([2]; 318.15 K): 1.4001 ± 0.0016
- refractive index ([2]; 323.15 K): 1.3988 ± 0.0016

SMILES: COCCO [2-methoxyethan-1-ol]
- speed of sound ([1]; 298.15 K): 1342.1 ± 1.3 m/s
- mass density ([1]; 298.15 K): 960.32 ± 1 kg/m3
- speed of sound ([1]; 303.15 K): 1324.7 ± 1.3 m/s
- mass density ([1]; 303.15 K): 955.71 ± 1 kg/m3
- speed of sound ([1]; 308.15 K): 1307.4 ± 1.3 m/s
- mass density ([1]; 308.15 K): 951.08 ± 1 kg/m3
- speed of sound ([1]; 313.15 K): 1290 ± 1.3 m/s
- mass density ([1]; 313.15 K): 946.42 ± 1 kg/m3
- speed of sound ([1]; 318.15 K): 1272.7 ± 1.3 m/s
- mass density ([1]; 318.15 K): 941.72 ± 1 kg/m3
- speed of sound ([1]; 323.15 K): 1255.4 ± 1.3 m/s
- mass density ([1]; 323.15 K): 936.89 ± 1 kg/m3
- refractive index ([2]; 298.15 K): 1.4001 ± 0.0016
- refractive index ([2]; 303.15 K): 1.3981 ± 0.0016
- refractive index ([2]; 308.15 K): 1.3961 ± 0.0016
- refractive index ([2]; 313.15 K): 1.3943 ± 0.0016
- refractive index ([2]; 318.15 K): 1.3922 ± 0.0016
- refractive index ([2]; 323.15 K): 1.3902 ± 0.0016

SMILES: CCOC(=O)OCC [diethyl carbonate] + CCCOCCO
- speed of sound ([3]; 298.15 K): 1177.5 ± 1.4 m/s
- mass density ([3]; 298.15 K): 969.1 ± 1 kg/m3
- speed of sound ([3]; 303.15 K): 1156.9 ± 1.4 m/s
- mass density ([3]; 303.15 K): 963.47 ± 1 kg/m3
- speed of sound ([3]; 308.15 K): 1136.6 ± 1.4 m/s
- mass density ([3]; 308.15 K): 957.81 ± 1 kg/m3
- speed of sound ([3]; 313.15 K): 1116.5 ± 1.4 m/s
- mass density ([3]; 313.15 K): 952.13 ± 1 kg/m3
- speed of sound ([3]; 318.15 K): 1096.5 ± 1.4 m/s
- mass density ([3]; 318.15 K): 946.43 ± 1 kg/m3
- speed of sound ([3]; 323.15 K): 1076.7 ± 1.4 m/s
- mass density ([3]; 323.15 K): 940.69 ± 1 kg/m3
- refractive index ([4]; 298.15 K): 1.3825 ± 0.0016
- refractive index ([4]; 303.15 K): 1.3802 ± 0.0016
- refractive index ([4]; 308.15 K): 1.3779 ± 0.0016
- refractive index ([4]; 313.15 K): 1.3756 ± 0.0016
- refractive index ([4]; 318.15 K): 1.3733 ± 0.0016
- refractive index ([4]; 323.15 K): 1.371 ± 0.0016

SMILES: CCOC(=O)OCC [diethyl carbonate] + CCOCCO
- speed of sound ([3]; 298.15 K): 1177.5 ± 1.4 m/s
- mass density ([3]; 298.15 K): 969.1 ± 1 kg/m3
- speed of sound ([3]; 303.15 K): 1156.9 ± 1.4 m/s
- mass density ([3]; 303.15 K): 963.47 ± 1 kg/m3
- speed of sound ([3]; 308.15 K): 1136.6 ± 1.4 m/s
- mass density ([3]; 308.15 K): 957.81 ± 1 kg/m3
- speed of sound ([3]; 313.15 K): 1116.5 ± 1.4 m/s
- mass density ([3]; 313.15 K): 952.13 ± 1 kg/m3
- speed of sound ([3]; 318.15 K): 1096.5 ± 1.4 m/s
- mass density ([3]; 318.15 K): 946.43 ± 1 kg/m3
- speed of sound ([3]; 323.15 K): 1076.7 ± 1.4 m/s
- mass density ([3]; 323.15 K): 940.69 ± 1 kg/m3
- refractive index ([4]; 298.15 K): 1.3825 ± 0.0016
- refractive index ([4]; 303.15 K): 1.3802 ± 0.0016
- refractive index ([4]; 308.15 K): 1.3779 ± 0.0016
- refractive index ([4]; 313.15 K): 1.3756 ± 0.0016
- refractive index ([4]; 318.15 K): 1.3733 ± 0.0016
- refractive index ([4]; 323.15 K): 1.371 ± 0.0016

SMILES: CCOC(=O)OCC [diethyl carbonate] + COCCO
- speed of sound ([3]; 298.15 K): 1177.5 ± 1.4 m/s
- mass density ([3]; 298.15 K): 969.1 ± 1 kg/m3
- speed of sound ([3]; 303.15 K): 1156.9 ± 1.4 m/s
- mass density ([3]; 303.15 K): 963.47 ± 1 kg/m3
- speed of sound ([3]; 308.15 K): 1136.6 ± 1.4 m/s
- mass density ([3]; 308.15 K): 957.81 ± 1 kg/m3
- speed of sound ([3]; 313.15 K): 1116.5 ± 1.4 m/s
- mass density ([3]; 313.15 K): 952.13 ± 1 kg/m3
- speed of sound ([3]; 318.15 K): 1096.5 ± 1.4 m/s
- mass density ([3]; 318.15 K): 946.43 ± 1 kg/m3
- speed of sound ([3]; 323.15 K): 1076.7 ± 1.4 m/s
- mass density ([3]; 323.15 K): 940.69 ± 1 kg/m3
- refractive index ([4]; 298.15 K): 1.3825 ± 0.0016
- refractive index ([4]; 303.15 K): 1.3802 ± 0.0016
- refractive index ([4]; 308.15 K): 1.3779 ± 0.0016
- refractive index ([4]; 313.15 K): 1.3756 ± 0.0016
- refractive index ([4]; 318.15 K): 1.3733 ± 0.0016
- refractive index ([4]; 323.15 K): 1.371 ± 0.0016
